The source of these data is PMC8545225 (Nanoscale, 2021).

The series is described as follows: 2D DOSY NMR diffusion measurement and hydrodynamic size. The format is physicochemical. As to conditions: DOSY NMR in D2O, free ligands at 289.75 K.

As for `O=C(O)c1ccc(P(c2ccccc2)c2ccccc2)cc1` [DPPBA, 4-(diphenylphosphino)benzoic acid], the Diffusion coefficient ds is 1.37 × 10^−9 m^2·s^−1.
To `O=S(=O)([O-])c1cccc(P(c2ccccc2)c2ccccc2)c1.[Na+]` [TPPMS, triphenylphosphine monosulfonate] belongs 2.42 × 10^−10 m^2·s^−1.
